In US12077503B2, “Substituted cyclic amides and their use as herbicides” (FMC CORPORATION, priority 2015, dated 2024):

Legend:
Type in all cases: in vivo
[1] = test system: sedge, umbrella (small-flower umbrella sedge, Cyperus difformis); assay: Test B flooded paddy test; conditions: Cyperus difformis, 250 g ai/ha, Flood; 0 to 100 scale where 0 is no effect and 100 is complete control; read-out: Sedge, Umbrella plant response rating
Method in brief: (§1)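 Compound goes directly into floodwater once pots are flooded 3 cm above soil, targeting plants at two leaves; the water depth is then held for the test duration. Plants sit 13–15 d in a greenhouse and are rated visually, 100 denoting complete control.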

rice (Oryra sativa) = assay: Test B flooded paddy test; conditions: Oryza sativa, 250 g ai/ha, Flood; 0 to 100 scale where 0 is no effect and 100 is complete control; read-out: Rice plant response rating
Method in brief: as §1

[2] = test system: ducksalad (Heteranthera limosa); assay: Test B flooded paddy test; conditions: Heteranthera limosa, 250 g ai/ha, Flood; 0 to 100 scale where 0 is no effect and 100 is complete control; read-out: Ducksalad plant response rating
Method in brief: as §1

[3] = test system: barnyardgrass (Echinochloa crus-galli); assay: Test B flooded paddy test; conditions: Echinochloa crus-galli, 250 g ai/ha, Flood; 0 to 100 scale where 0 is no effect and 100 is complete control; read-out: Barnyardgrass plant response rating
Method in brief: as §1

[4] = test system: giant foxtail (Setaria faberii); assay: Test A preemergence; conditions: Setaria faberi, pre-emergence, 240 h, preemergence, 0 to 100 scale where 0 is no effect and 100 is complete control, read-out: Foxtail, Giant plant response rating; for pest or weed control at 125 g/ha: 125 g ai/ha, visual injury rating, approximately 10 d; for pest or weed control at 500 g/ha: 500 g ai/ha
Method in brief: (§2)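 Preemergence soil spray on seeded pots or post-emergence spray on 1–2 leaf plants, in loam–sand blend. Greenhouse ~10 d. Visual rating 0–100 against untreated plants.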

[5] = test system: pigweed (Amaranthus retroflexus); assay: Test A preemergence; conditions: Amaranthus retroflexus, pre-emergence, 240 h, preemergence, 0 to 100 scale where 0 is no effect and 100 is complete control, read-out: Pigweed plant response rating; for pest or weed control at 125 g/ha: 125 g ai/ha, visual injury rating, approximately 10 d; for pest or weed control at 500 g/ha: 500 g ai/ha
[6] = test system: ryegrass, Italian (Italian ryegrass, Lolium multiflorum); assay: Test A preemergence; conditions: Lolium multiflorum, pre-emergence, 240 h, preemergence, 0 to 100 scale where 0 is no effect and 100 is complete control, read-out: Ryegrass, Italian plant response rating; for pest or weed control at 125 g/ha: 125 g ai/ha, visual injury rating, approximately 10 d; for pest or weed control at 500 g/ha: 500 g ai/ha
Method in brief: as §2

Kochia (Kochia scoparia) [7] = assay: Test A preemergence; conditions: Bassia scoparia, pre-emergence, 240 h, preemergence, 0 to 100 scale where 0 is no effect and 100 is complete control, read-out: Kochia plant response rating; for pest or weed control at 125 g/ha: 125 g ai/ha, visual injury rating, approximately 10 d; for pest or weed control at 500 g/ha: 500 g ai/ha
Method in brief: as §2

[8] = test system: barnyardgrass (Echinochloa crus-galli); assay: Test A preemergence; conditions: Echinochloa crus-galli, pre-emergence, 240 h, preemergence, 0 to 100 scale where 0 is no effect and 100 is complete control, read-out: Barnyardgrass plant response rating; for pest or weed control at 125 g/ha: 125 g ai/ha, visual injury rating, approximately 10 d; for pest or weed control at 500 g/ha: 500 g ai/ha
Method in brief: as §2

[9] = test system: ragweed (common ragweed, Ambrosia elatior); assay: Test A preemergence; conditions: Ambrosia artemisiifolia, pre-emergence, 240 h, preemergence, 0 to 100 scale where 0 is no effect and 100 is complete control, read-out: Ragweed plant response rating; for pest or weed control at 125 g/ha: 125 g ai/ha, visual injury rating, approximately 10 d; for pest or weed control at 500 g/ha: 500 g ai/ha
Method in brief: as §2

[10] = test system: ryegrass, Italian (Italian ryegrass, Lolium multiflorum); assay: Test A postemergence; conditions: Lolium multiflorum, post-emergence, 240 h, postemergence; for pest or weed control at 125 g/ha: 125 g ai/ha, visual injury vs untreated controls after approx. 10 d, 0 = no effect, 100 = complete control, read-out: Ryegrass, Italian plant response rating (0 to 100 scale); for pest or weed control at 500 g/ha: 500 g ai/ha, 0 to 100 scale, 0 is no effect, 100 is complete control, read-out: Ryegrass, Italian plant response rating
Method in brief: as §2

[11] = test system: blackgrass (Alopecurus myosuroides); assay: Test A postemergence; conditions: Alopecurus myosuroides, post-emergence, 240 h, postemergence; for pest or weed control at 125 g/ha: 125 g ai/ha, visual injury vs untreated controls after approx. 10 d, 0 = no effect, 100 = complete control, read-out: Blackgrass plant response rating (0 to 100 scale); for pest or weed control at 500 g/ha: 500 g ai/ha, 0 to 100 scale, 0 is no effect, 100 is complete control, read-out: Blackgrass plant response rating
Method in brief: as §2

Kochia (Kochia scoparia) [12] = assay: Test A postemergence; conditions: Bassia scoparia, post-emergence, 240 h, postemergence; for pest or weed control at 125 g/ha: 125 g ai/ha, visual injury vs untreated controls after approx. 10 d, 0 = no effect, 100 = complete control, read-out: Kochia plant response rating (0 to 100 scale); for pest or weed control at 500 g/ha: 500 g ai/ha, 0 to 100 scale, 0 is no effect, 100 is complete control, read-out: Kochia plant response rating
Method in brief: as §2

[13] = test system: wheat (Triticum aestivum); assay: Test A postemergence; conditions: Triticum aestivum, post-emergence, 240 h, postemergence; for plant injury at 125 g/ha: 125 g ai/ha, visual injury vs untreated controls after approx. 10 d, 0 = no effect, 100 = complete control, read-out: Wheat plant response rating (0 to 100 scale); for plant injury at 500 g/ha: 500 g ai/ha, 0 to 100 scale, 0 is no effect, 100 is complete control, read-out: Wheat plant response rating
Method in brief: as §2

[14] = test system: ragweed (common ragweed, Ambrosia elatior); assay: Test A postemergence; conditions: Ambrosia artemisiifolia, post-emergence, 240 h, postemergence; for pest or weed control at 125 g/ha: 125 g ai/ha, visual injury vs untreated controls after approx. 10 d, 0 = no effect, 100 = complete control, read-out: Ragweed plant response rating (0 to 100 scale); for pest or weed control at 500 g/ha: 500 g ai/ha, 0 to 100 scale, 0 is no effect, 100 is complete control, read-out: Ragweed plant response rating
Method in brief: as §2

| SMILES | pest or weed control at 250 g/ha [1] [%] | pest or weed control at 250 g/ha (rice (Oryra sativa)) [%] | pest or weed control at 250 g/ha [2] [%] | pest or weed control at 250 g/ha [3] [%] | pest or weed control at 125 g/ha [4] [%] | pest or weed control at 500 g/ha [4] [%] | pest or weed control at 125 g/ha [5] [%] | pest or weed control at 500 g/ha [5] [%] | pest or weed control at 125 g/ha [6] [%] | pest or weed control at 500 g/ha [6] [%] | pest or weed control at 125 g/ha (Kochia (Kochia scoparia) [7]) [%] | pest or weed control at 500 g/ha (Kochia (Kochia scoparia) [7]) [%] | pest or weed control at 125 g/ha [8] [%] | pest or weed control at 500 g/ha [8] [%] | pest or weed control at 125 g/ha [9] [%] | pest or weed control at 500 g/ha [9] [%] | pest or weed control at 125 g/ha [10] [%] | pest or weed control at 500 g/ha [10] [%] | pest or weed control at 125 g/ha [11] [%] | pest or weed control at 500 g/ha [11] [%] | other results |
| --- | --- | --- | --- | --- | --- | --- | --- | --- | --- | --- | --- | --- | --- | --- | --- | --- | --- | --- | --- | --- | --- |
| CN1C[C@H](c2ccc(C#N)cc2)[C@@H](C(=O)Nc2ccc(F)c(F)c2F)C1=O [Compound 1229] | 0 | 0 | 90 | 50 | 100 | 100 | 60 | 90 | 0 | 40 | 90 | 90 | 90 | 100 | 60 | 70 | 0 | 40 | 0 | 40 | pest or weed control at 125 g/ha (Kochia (Kochia scoparia) [12]): 70%; pest or weed control at 500 g/ha (Kochia (Kochia scoparia) [12]): 80%; plant injury at 125 g/ha [13]: 0%; plant injury at 500 g/ha [13]: 50%; pest or weed control at 125 g/ha [14]: 0%; pest or weed control at 500 g/ha [14]: 0% |
| CSc1ccccc1NC(=O)[C@H]1C(=O)N(C)C[C@@H]1c1ccc(C#N)cc1 [Compound 1230] | 0 | 0 | 70 | 25 | 40 | 90 | 20 | 30 | 0 | 0 | 70 | 90 | 0 | 50 | 0 | 0 | 0 | 0 | 0 | 0 | pest or weed control at 125 g/ha (Kochia (Kochia scoparia) [12]): 30%; pest or weed control at 500 g/ha (Kochia (Kochia scoparia) [12]): 70%; plant injury at 125 g/ha [13]: 0%; plant injury at 500 g/ha [13]: 0%; pest or weed control at 125 g/ha [14]: 0%; pest or weed control at 500 g/ha [14]: 0% |
